According to the supplement of paper PMC10307832:

Key:
Experiment in all cases: relative viability (nuclei count vs DMSO), 5 days (fraction); higher = more cells survive
[1] = compound: CC[C@@H](C)CNCC(=O)N1CCC2=C([C@@H]1COC3=CC=CC(=C3)C)C=CS2 [RU-SKI 43] + CC(C)C[C@H](NC(=O)[C@H](Cc1ccccc1)NC(=O)c1cnccn1)B(O)O [Bortezomib] (partner 0.002 µM)
Method in brief: (§1)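 Dosing by pin tool came one day after lung cancer cell lines were seeded in 1536-well plates, using either one drug or a fixed anchor-drug dose plus five library-drug doses (not always all listed) in √10 steps. After 5 days, nuclei were counted on 4× images. Relative viability is treated-well nuclei count divided by vehicle-well nuclei count, and values are medians of duplicate plates.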

[2] = compound: CCc1c2c(nc3ccc(OC(=O)N4CCC(N5CCCCC5)CC4)cc13)-c1cc3c(c(=O)n1C2)COC(=O)[C@]3(O)CC [Irinotecan] + N=C(N)NC(=N)NCCc1ccccc1 [Phenformin] (partner 250 µM)
Method in brief: as §1

[3] = compound: CC[C@@H](C)CNCC(=O)N1CCC2=C([C@@H]1COC3=CC=CC(=C3)C)C=CS2 [RU-SKI 43] + Cc1cc(Nc2cc(N3CCN(C)CC3)nc(Sc3ccc(NC(=O)C4CC4)cc3)n2)n[nH]1 [Tozasertib] (partner 0.1 µM)
Method in brief: as §1

[4] = compound: CCc1c2c(nc3ccc(OC(=O)N4CCC(N5CCCCC5)CC4)cc13)-c1cc3c(c(=O)n1C2)COC(=O)[C@]3(O)CC [Irinotecan] + Nc1ncn([C@H]2C[C@H](O)[C@@H](CO)O2)c(=O)n1 [Decitabine] (partner 2 µM)
Method in brief: as §1

Row | Cell Line | relative viability ([1]; first compound 0.1 µM) | relative viability ([1]; first compound 0.3162 µM) | relative viability ([1]; first compound 1 µM) | relative viability ([1]; first compound 3.162 µM) | relative viability ([1]; first compound 10 µM) | relative viability ([2]; first compound 0.6325 µM) | relative viability ([2]; first compound 2 µM) | relative viability ([2]; first compound 6.325 µM) | relative viability ([2]; first compound 20 µM) | relative viability ([3]; first compound 0.1 µM) | relative viability ([3]; first compound 0.3162 µM) | relative viability ([3]; first compound 1 µM) | relative viability ([3]; first compound 3.162 µM) | relative viability ([3]; first compound 10 µM) | relative viability ([4]; first compound 0.6325 µM) | relative viability ([4]; first compound 2 µM) | relative viability ([4]; first compound 6.325 µM) | relative viability ([4]; first compound 20 µM)
1 | LXF-289 | 1.06 | 0.977 | 1.03 | 1.06 | 0.974 | 0.5 | 0.46 | 0.262 | 0.162 | 0.229 | 0.249 | 0.21 | 0.2 | 0.183 | 0.351 | 0.218 | 0.162 | 0.165
2 | NCI-H23 | 0.968 | 1.16 | 0.958 | 1.36 | 0.899 | 0.586 | 0.647 | 0.221 | 0.252 | 0.394 | 0.393 | 0.347 | 0.455 | 0.297 | 0.288 | 0.243 | 0.211 | 0.251
3 | NCI-H322M | 1.2 | 1.3 | 1.3 | 1.24 | 1.28 | 0.745 | 0.758 | 0.515 | 0.265 | 0.516 | 0.502 | 0.47 | 0.518 | 0.394 | 0.602 | 0.725 | 0.548 | 0.342
4 | NCI-H441 | 0.649 | 0.243 | 0.657 | 0.562 | 0.393 | 0.566 | 0.759 | 0.299 | 0.224 | 0.597 | 0.542 | 0.541 | 0.736 | 0.554 | 0.208 | 0.166 | 0.227 | 0.324
5 | NCI-H460 | 1.23 | 1.8 | 1.53 | 1.25 | 1.03 | 0.21 | 0.272 | 0.0796 | 0.0368 | 0.545 | 0.4 | 0.544 | 0.504 | 0.274 | 0.353 | 0.317 | 0.106 | 0.0426
6 | NCI-H520 | 0.572 | 0.798 | 0.721 | 0.667 | 0.597 | 0.542 | 0.649 | 0.317 | 0.258 | 0.456 | 0.422 | 0.428 | 0.401 | 0.408 | 0.392 | 0.396 | 0.267 | 0.195
7 | NCI-H596 | 1.32 | 0.93 | 1.34 | 0.936 | 1.1 | 0.699 | 0.83 | 0.784 | 0.745 | 0.996 | 0.849 | 0.869 | 0.954 | 0.849 | 1.06 | 0.842 | 0.85 | 1.49
8 | NCI-H647 | 0.956 | 0.841 | 1.08 | 1.25 | 1.14 | 0.463 | 0.644 | 0.161 | 0.104 | 0.262 | 0.261 | 0.227 | 0.231 | 0.262 | 0.39 | 0.238 | 0.157 | 0.159
9 | NCI-H650 | 1.02 | 0.779 | 1.1 |  | 0.891 | 0.36 | 0.409 | 0.239 | 0.248 | 0.724 | 0.717 | 0.765 | 0.709 | 0.654 | 0.246 | 0.213 | 0.168 | 0.091
10 | NCI-H661 | 0.776 | 0.704 | 0.835 | 0.943 | 0.764 | 0.254 | 0.329 | 0.277 | 0.191 | 0.345 | 0.349 | 0.345 | 0.335 | 0.365 | 0.532 | 0.546 | 0.424 | 0.168
11 | NCI-H727 | 1 | 1.14 | 0.834 | 0.839 | 0.802 | 0.464 | 0.611 | 0.524 | 0.413 | 0.658 | 0.583 | 0.54 | 0.564 | 0.629 | 0.617 | 0.751 | 0.527 | 0.602
12 | NCI-H838 | 0.718 | 0.955 | 0.912 | 0.748 | 0.992 | 0.661 | 0.587 | 0.312 | 0.202 | 0.243 | 0.242 | 0.273 | 0.258 | 0.254 | 0.444 | 0.47 | 0.277 | 0.18
13 | NCI-H1355 | 1.21 | 1.29 | 1.18 | 1.21 | 1.2 |  | 0.46 | 0.278 | 0.248 | 0.516 | 0.617 | 0.618 | 0.562 | 0.447 |  | 0.27 | 0.19 | 0.242
14 | NCI-H1437 | 0.581 | 0.594 | 0.637 | 0.629 | 0.526 | 0.296 | 0.306 | 0.163 | 0.144 | 0.362 | 0.34 | 0.443 | 0.379 | 0.38 | 0.586 | 0.536 | 0.391 | 0.334
15 | NCI-H1650 | 0.204 | 0.208 | 0.222 | 0.209 | 0.192 |  | 0.418 | 0.34 | 0.196 | 0.381 | 0.374 | 0.38 | 0.427 | 0.303 | 0.322 | 0.296 | 0.276 | 0.207
16 | NCI-H1651 | 0.93 | 1.1 | 1.01 | 0.931 | 0.947 | 0.259 | 0.34 | 0.242 | 0.14 | 0.649 | 0.722 | 0.839 | 0.642 | 0.572 | 0.264 | 0.486 | 0.18 | 0.137
17 | NCI-H1666 | 0.704 | 0.84 | 0.702 | 0.719 | 0.534 | 0.511 | 0.529 | 0.425 | 0.424 | 0.495 | 0.596 | 0.571 | 0.525 | 0.435 | 0.551 | 0.62 | 0.547 | 0.545
